{
  "source": "patent US4906622A",
  "about": "“Optically active 2-chloro-12-(3-dimethylamino-2-methyl-propyl)-12H-dibenzo[d.g] [1,3,6] dioxazocines and a process for the preparation thereof” (Egis Gyogyszergyar, priority 1985, dated 1990)",
  "key": {"[1]": {"conditions": "cited from earlier work"}, "[2]": {"tested_on": "mice", "assay": "Acute toxicity on mice with peroral treatment", "type": "in vivo", "conditions": "for LD50 p.o. (Table 1): Table 1, hydrochloride; for LD50 p.o. (Table 2): repeated test, population of 500 mice for each compound, hydrochloride", "protocol": "(§1) The hydrochloride of the racemic compound, the hydrochloride of the (-)-isomer [compound of Example 6; the salt has (+) rotation] and the hydrochloride of the (+)-isomer [compound of Example 7; the salt has (-) rotation] were tested for acute toxicity on mice with peroral treatment and for the inhibition of tremor induced by tremorine (the latter test characterizes the action against Parkinson's disease). In the latter case, the inhibition of tremor induced by tremorine [1,1'-(2-butynylene)-dipyrrolidine] administered intraperitoneally at a dosage of 20 mg/kg was tested on mice as described in Science, 124, 79 (1956). The compound to be examined was given perorally to a population of 50 mice one hour prior to the administration of tremorine, and the tremor developed was evaluated 45 minutes after the administration of tremorine.\n(§2) To make sure that no contradiction exists between the data of Table I on the one hand, and the data of U.S. Pat. No. 4,208,410 on the other hand, the above tests was repeated using a population of 500 mice for each compound tested."}, "[3]": {"tested_on": "tremor induced by tremorine", "assay": "animal or person", "type": "in vivo, mice", "conditions": "for T.I. (therapeutic index) (Table 1) / T.I. (therapeutic index) (Table 2) / ED50: po; for ED50 p.o., inhibition of tremor induced by tremorine (Table 1) / ED50 p.o., inhibition of tremor induced by tremorine (Table 2): hydrochloride; for ED50: Mus musculus", "protocol": "as §1\nSince a lower population of mice was used, less exact values of ED50 were obtained for the compounds tested. Thus, the therapeutic index calculated for the racemic compound is lower by a factor of about 2.4 than the value given in U.S. Pat. No. 4 4,208,410. However, the data obtained under identical test circumstances on a relatively low number of test animals can be compared with each other.\nas §2"}, "[4]": {"assay": "Acute toxicity on mice with peroral treatment", "type": "in vivo", "conditions": "mouse, in vivo, po", "protocol": "as §1, §2"}, "[5]": {"assay": "Local anaesthetic activity", "type": "in vivo", "conditions": "primary tests / detailed tests"}, "[6]": {"conditions": "population of 500 mice, U.S. Pat. No. 4,208,410"}, "[7]": {"conditions": "p.o. one hour before tremorine 20 mg/kg i.p., evaluated 45 minutes after tremorine, population of 50 mice"}, "[8]": {"conditions": "repeated test, population of 500 mice for each compound"}},
  "note": "Counter-ions that a name gives are not always drawn. Like-named read-outs stand apart in the source and are kept apart here.",
  "data": [
    {"compound": "CC(CN(C)C)CN1c2ccccc2OCOc2ccc(Cl)cc21", "note": "(racemic) [2-chloro-12-(3-dimethylamino-2-methylpropyl)-12H-dibenzo[d,g][1,3,6]-dioxazocine]", "values": [
      {"measurement": "local anaesthetic and antiparkinsonic activity", "setting": "[1]; known from U.S. Pat. No. 4,208,410", "result": "has local anaesthetic and antiparkinsonic activity"},
      {"measurement": "ED50, antiparkinsonic activity", "setting": "[1]; [6]", "result": 11, "unit": "mg/kg"},
      {"measurement": "therapeutic index", "setting": "[1]; [6]", "result": 25}
    ]},
    {"compound": "CC(CN(C)C)CN1c2ccccc2OCOc2ccc(Cl)cc21", "note": "(single isomer, unassigned; (-)) [Example 7, (-)-2-Chloro-12-(3-dimethylamino-2-methylpropyl)-12H-dibenzo[d,g][1,3,6]dioxazocine hydrochloride]", "values": [
      {"measurement": "LD50 p.o. (Table 1)", "setting": "[2]", "result": 460, "unit": "mg/kg"},
      {"measurement": "LD50 p.o. (Table 2)", "setting": "[2]", "result": 460, "unit": "mg/kg"},
      {"measurement": "T.I. (therapeutic index) (Table 1)", "setting": "[3]; mouse, in vivo", "result": 65.7},
      {"measurement": "T.I. (therapeutic index) (Table 2)", "setting": "[3]; mouse, in vivo", "result": 160.8},
      {"measurement": "ED50 p.o., inhibition of tremor induced by tremorine (Table 1)", "setting": "[3]; [7]", "result": 7, "unit": "mg/kg"},
      {"measurement": "ED50 p.o., inhibition of tremor induced by tremorine (Table 2)", "setting": "[3]; [8]", "result": 2.86, "unit": "mg/kg"}
    ]},
    {"compound": "CC(CN(C)C)CN1c2ccccc2OCOc2ccc(Cl)cc21", "note": "(racemic) [racemic, reference compound]", "values": [
      {"measurement": "LD50", "setting": "[4]; Table 1, read-out: LD50 p.o. (Table 1)", "result": 270, "unit": "mg/kg"},
      {"measurement": "LD50", "setting": "[4]; repeated test, population of 500 mice for each compound, read-out: LD50 p.o. (Table 2)", "result": 270, "unit": "mg/kg"},
      {"measurement": "local anaesthetic activity", "setting": "[5]", "result": "has local anaesthetic activity, detailed tests have not shown any therapeutically valuable effect"},
      {"measurement": "ED50", "setting": "[3]; p.o. one hour before tremorine 20 mg/kg i.p., evaluated 45 minutes after tremorine, population of 50 mice, read-out: ED50 p.o., inhibition of tremor induced by tremorine (Table 1)", "result": 25, "unit": "mg/kg"},
      {"measurement": "ED50", "setting": "[3]; repeated test, population of 500 mice for each compound, read-out: ED50 p.o., inhibition of tremor induced by tremorine (Table 2)", "result": 10.5, "unit": "mg/kg"},
      {"measurement": "factor by which the therapeutic index is lower than the value given in U.S. Pat. No. 4,208,410", "setting": "[3]; mouse, in vivo", "result": "about 2.4"},
      {"measurement": "T.I. (therapeutic index) (Table 1)", "setting": "[3]; mouse, in vivo", "result": 10.8},
      {"measurement": "T.I. (therapeutic index) (Table 2)", "setting": "[3]; mouse, in vivo", "result": 25.7}
    ]},
    {"compound": "CC(CN(C)C)CN1c2ccccc2OCOc2ccc(Cl)cc21", "note": "(single isomer, unassigned; (+)) [Example 6, (+)-2-chloro-12-(3-dimethylamino-2-methylpropyl)-12H-dibenzo[d,g][1,3,6]dioxazocine hydrochloride]", "values": [
      {"measurement": "LD50 p.o. (Table 1)", "setting": "[2]", "result": 160, "unit": "mg/kg"},
      {"measurement": "LD50 p.o. (Table 2)", "setting": "[2]", "result": 160, "unit": "mg/kg"},
      {"measurement": "T.I. (therapeutic index) (Table 1)", "setting": "[3]; mouse, in vivo", "result": 72.7},
      {"measurement": "T.I. (therapeutic index) (Table 2)", "setting": "[3]; mouse, in vivo", "result": 168.4},
      {"measurement": "ED50 p.o., inhibition of tremor induced by tremorine (Table 1)", "setting": "[3]; [7]", "result": 2.2, "unit": "mg/kg"},
      {"measurement": "ED50 p.o., inhibition of tremor induced by tremorine (Table 2)", "setting": "[3]; [8]", "result": 0.95, "unit": "mg/kg"}
    ]}
  ]
}
